Molecules are shown by their SMILES.

Data set [1] concerns human tumor cells including breast, colon, prostate, cervix, lung, and ovarian cancers. The data set can be described thus: In vitro activity of BA against cancer cells. Format: cell-based.
In another data set the test system is normal cells. The data set can be described thus: Toxic effects of BA in normal cells. Format: cell-based.
For data set [2] the following is noted: in vivo. The protocol: The protocol has been amended to evaluate BA in combination with chemotherapy in specific tumor types.
BA Dosing: • Twice weekly; i.v. infusion • Standard 3+3 design for BA dose escalation • Dose levels studied: 2.0, 2.8, 4.0, 5.6, 8.0, and up to 11.2 mg/kg
Safety, tolerability and MTD of each combination

Another data set concerns the target T1, PARP (Homo sapiens, UniProt P09874).
T1 construct: endogenous in cells; host or cells: peripheral blood mononuclear cells from patients dosed with BA
The data set can be described thus: PARP activity assay in peripheral blood mononuclear cells (PBMCs) from patients. The data set is classed as in vivo. To be noted: for PARP inhibition in PBMCs: after multiple dosing with BA doses of 2.8 mg/kg or higher, FIG. 5, 2.8 mg/kg. The protocol: Whole blood is collected into EDTA vacutainers and human PBMCs are obtained by BD Vacutainer™ CPT™ Cell Preparation kit according to the manufacturer's instructions (BD Vacutainer™, REF 362760). Tumor samples are collected in a sterile container and placed immediately on ice. Within 30 minutes, tumor samples are snap-frozen in liquid nitrogen and stored at −80° C. until homogenized for analysis. The specimen is defrosted on ice and the wet weight is documented. The tissue is homogenized using isotonic buffer [7 mmol/L HEPES, 26 mmol/L KCl, 0.1 mmol/L dextran, 0.4 mmol/L EGTA, 0.5 mmol/L MgCl2, 45 mmol/L sucrose (pH 7.8)]. The homogenate is kept on ice throughout the process, and homogenization is done in 10-second bursts to prevent undue warming of the sample. Unless assayed on the day of homogenization, samples are refrozen to −80° C. and stored at this temperature until analyzed.
Cell preparations are defrosted rapidly at room temperature and washed twice in ice-cold PBS. […] Maximally stimulated PARP activity is measured in replicate samples of 20,000 cells in a reaction mixture containing […] NAD+ and 10 mg/mL oligonucleotide in a reaction buffer of 100 mmol/L Tris-HCl, 120 mmol/L MgCl2 (pH 7.8) in a final volume of […] as described previously (24) at 26° C. in an oscillating water bath. […] Purified PAR standards are loaded onto each membrane (0-25 pmol monomer equivalent) to generate a standard curve and allow quantification. […] Chemiluminesence detected during a 5-minute exposure is measured using a Fuji LAS3000 UV Illuminator (Raytek, Sheffield, United Kingdom) and digitized using the imaging software (Fuji LAS Image version 1.1, Raytek). The acquired image is analyzed using Aida Image Analyzer (version 3.28.001), and results are expressed in LAU/mm2. Three background areas on the exposed blot are measured and the mean of the background signal from the membrane is subtracted from all results. The PAR polymer standard curve is analyzed using an unweighted one-site binding nonlinear regression model and unknowns read off the standard curve so generated. […]

Data set [3] concerns cervical adenocarcinoma Hela cells. Put plainly: BrdU cell proliferation assay in Hela cells. The settings on record: BA at various concentrations, FIG. 6. Format: cell-based, human. The protocol: The effect of BA on the proliferation of cervical adenocarcinoma Hela cells is examined. Cell proliferation is assessed by BrdU assay as described herein.
Hela cell is an immortal cell line used in medical research. The cell line was derived from cervical cancer cells. HeLa S3 is a clonal derivative of the parent HeLa line. The HeLa S3 clone has been very useful in the clonal analysis of mammalian cell populations relating to chromosomal variation, cell nutrition, and plaque-forming ability. HeLa cells have been reported to contain human papilloma virus 18 (HPV-18) sequences. Cells are cultured according to the standard protocol (ATCC) in the art. Briefly: 1. Remove and discard culture medium. 2. […] 3. Add 2.0 to 3.0 ml of Trypsin-EDTA solution to flask and observe cells under an inverted microscope until cell layer is dispersed (usually within 5 to 15 minutes). Cells that are difficult to detach may be placed at 37° C. to facilitate dispersal. 4. Add 6.0 to 8.0 ml of complete growth medium and aspirate cells by gently pipetting. 5. Add appropriate aliquots of the cell suspension to new culture vessels. 6. Incubate cultures at 37° C.
BrdU assay is well known in the art. […] The immune complexes are detected by the subsequent substrate reaction via chemiluminescent detection (based on Cell Proliferation ELISA, BrdU Chemiluminescence Protocol from Roche). […]

Data set [4] in a line: Stability of solutions and drug product. Format: physicochemical.
Data set [5] can be described thus: Preclinical studies of BA with topotecan.

T1 sequence (P09874 whole entry): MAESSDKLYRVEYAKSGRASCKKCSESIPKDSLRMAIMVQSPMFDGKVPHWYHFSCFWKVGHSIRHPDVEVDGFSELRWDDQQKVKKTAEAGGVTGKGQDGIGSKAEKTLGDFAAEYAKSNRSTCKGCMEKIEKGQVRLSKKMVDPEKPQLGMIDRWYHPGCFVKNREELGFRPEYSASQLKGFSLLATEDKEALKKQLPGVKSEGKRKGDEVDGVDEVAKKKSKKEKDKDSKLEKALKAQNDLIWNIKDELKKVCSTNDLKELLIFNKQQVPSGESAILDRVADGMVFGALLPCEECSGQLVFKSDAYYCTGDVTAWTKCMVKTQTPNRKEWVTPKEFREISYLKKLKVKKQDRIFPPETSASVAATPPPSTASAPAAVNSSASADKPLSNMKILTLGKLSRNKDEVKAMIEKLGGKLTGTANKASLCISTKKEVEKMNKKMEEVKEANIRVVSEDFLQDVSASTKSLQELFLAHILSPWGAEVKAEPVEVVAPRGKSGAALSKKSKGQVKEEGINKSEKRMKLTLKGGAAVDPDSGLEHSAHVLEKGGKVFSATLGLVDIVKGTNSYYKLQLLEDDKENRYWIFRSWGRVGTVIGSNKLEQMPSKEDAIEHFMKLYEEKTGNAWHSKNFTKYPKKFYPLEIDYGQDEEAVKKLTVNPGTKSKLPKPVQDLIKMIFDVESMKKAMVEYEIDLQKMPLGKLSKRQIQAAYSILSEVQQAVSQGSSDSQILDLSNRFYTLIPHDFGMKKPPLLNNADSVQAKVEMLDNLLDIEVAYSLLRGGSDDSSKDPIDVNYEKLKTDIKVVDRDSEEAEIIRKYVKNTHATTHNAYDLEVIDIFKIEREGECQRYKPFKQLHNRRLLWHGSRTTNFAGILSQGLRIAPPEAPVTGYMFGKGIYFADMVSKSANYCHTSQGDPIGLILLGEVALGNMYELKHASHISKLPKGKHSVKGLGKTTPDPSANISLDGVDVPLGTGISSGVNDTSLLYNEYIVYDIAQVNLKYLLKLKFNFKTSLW

Regarding `NC(=O)c1ccc(I)c([N+](=O)[O-])c1` [BA, 4-iodo-3-nitrobenzamide], in data set [1] (in vitro, breast, colon, prostate, cervix, lung, and ovarian cancers), the “proliferation of human tumor cells” value is recorded as “inhibits the proliferation”. Also, the “activity against cancer cells in vitro” value in data set [1] (including drug resistant cell lines) was “active against a broad range of cancer cells”. In the data set on normal cells, the “toxic effects in normal cells” value was “without exerting toxic effects in normal cells”. The “potentiation of known toxicities or increased frequency of expected toxicities of cytotoxic regimens” value in data set [2] is given as “no evidence”. Moreover, the “PARP inhibition in PBMCs” value was “significant and prolonged PARP inhibition” on PARP; “PARP inhibition” at PARP (listed as 4-iodo-3-nitrobenzamide). The “biologically relevant dose that elicits significant and sustained PARP inhibition” value on PARP (at effective preclinical blood concentrations) came to 2.8 mg/kg. In addition, in data set [3], the “proliferation of cervical adenocarcinoma Hela cells” value is “inhibits proliferation”. Besides, the “stability of BA dosing solution, time to administration after preparation” value in data set [4] (ambient (room) temperature, diluted in 0.9% NS or D5W) is at most 8 h. Moreover, the “permitted storage of BA drug product” value in data set [4] (at 25° C., 10 mg/mL in 25% hydroxypropylbetacyclodextrin/10 mM phosphate buffer, pH 7.4) is at most 24 h. Moreover, the “effect on antitumor activity of topotecan” value in data set [5] was “potentiates the antitumor activity of topotecan”.
